How the values were obtained:
[1] = test system: human nasopharyngeal cancer cell line KB; assay: Cytotoxicity test of conjugate LDC13B; assay type: cell-based
Method: Culture medium: RPMI 1640 Medium, no folic acid
1) human nasopharyngeal cancer cell line KB, human colon carcinoma HCT-116, human prostatic cancer cell PC-3, human gastric cancer cell line GTL-16, human endometrial cancer cell HEC-1A, and human gastric cancer cell N87 were incubated at 37° C., 5% CO2 in RPMI 1640 medium containing 10% fetal bovine serum, the cells were passaged every 2-3 days.
2) human nasopharyngeal cancer cell line KB, human colon carcinoma HCT-116, human prostatic cancer cell PC-3, human gastric cancer cell line GTL-16, human endometrial cancer cell HEC-1A, and human gastric cancer cell N87 were plated at 1×10^3 cells per well (96-well plate) and incubated for 8-12 h at 37° C., 5% CO2.
3) Stock solutions of LDC conjugates or control were prepared in PBS solution. 100 μL/well of serially diluted LDC conjugates or control was added to the cells in the plate and incubated for 15-30 min at 37° C., 5% CO2. The culture medium in the wells was then removed by aspiration and the cells were incubated in fresh culture medium without conjugates (150 μL/well) for 2-3 days at 37° C., 5% CO2.
4) CellTiter 96® Aqueous One Solution Cell Proliferation Assay (Promega) was added to each well to measure the amount of […] cells, and the plate was incubated in an incubator for 1 h at 37° C., 5% CO2.
5) the plate was read at 490 nm on a microplate reader, and the cell survivals were compared for cells with or without the treatment of LDC conjugates. The LDC drug concentrations that are required for 50% cell death (IC50 values) were determined.

Transplanted H460 tumor = assay: Inhibitory assay of conjugate LDC13B against xenograf tumors; assay type: in vivo, nude mice; conditions: for Body weight of mice / Tumor size: H460 tumor
Method: Animal: nude mice, aged 6-8 weeks, female
1) human large cell lung cancer cell H460 were incubated at 37° C., 5% CO2 in IMDM medium containing 10% fetal bovine serum, the cells were passaged every 2-3 days.
2) generation of tumors: 7×10^6 tumor cells were injected subcutaneously into the back of nude mice, and the mice were grouped for treatment after the tumor sizes were as large as about 200 mm^3.
3) treatment: 3 mice/group, treated with LDC13B as well as controls MMAE and PBS with doses of 2.5 and 5 mg/kg every 3 days, four injections.
4) the physical performance, body weights and tumor sizes of the animals were monitored. The number of animal death was recorded during the experiment.

[2] = 2.5 mg/kg, 3 days after Injection 1
[3] = 2.5 mg/kg, 3 days after Injection 2
[4] = 2.5 mg/kg, 3 days after Injection 3
[5] = 2.5 mg/kg, 3 days after Injection 4
[6] = 5 mg/kg, 3 days after Injection 1
[7] = 5 mg/kg, 3 days after Injection 2
[8] = 5 mg/kg, 3 days after Injection 3
[9] = 5 mg/kg, 3 days after Injection 4

## CC[C@H](C)[C@@H]([C@@H](CC(=O)N1CCC[C@H]1[C@H](OC)[C@@H](C)C(=O)N[C@H](C)[C@@H](O)c1ccccc1)OC)N(C)C(=O)[C@@H](NC(=O)[C@H](C(C)C)N(C)C(=O)OCc1ccc(NC(=O)[C@H](CCCNC(N)=O)NC(=O)[C@@H](NC(=O)CCCCCN2C(=O)CC(SC[C@H](NC(=O)CC[C@H](NC(=O)c3ccc(NCc4cnc5[nH]c(N)nc(=O)c5n4)cc3)C(=O)O)C(=O)NCCCC[C@@H](NC(=O)[C@H](Cc3ccc(O)cc3)NC(=O)[C@H](CO)NC(=O)[C@H](Cc3c[nH]c4ccccc34)NC(=O)[C@H](Cc3c[nH]cn3)NC(=O)[C@@H]3CCC(=O)N3)C(=O)N[C@@H](CC(C)C)C(=O)N[C@@H](CCCNC(=N)N)C(=O)N3CCC[C@H]3C(=O)NCC(N)=O)C2=O)C(C)C)cc1)C(C)C (some centres unmarked) [LDC13B]
[1]
  more potent than either of the single-ligand drug conjugates LDC1 and LDC13A: 2-10 fold
Transplanted H460 tumor; H460, 2.5 mg/kg dose
  tumor response (in words): shrank rapidly
Transplanted H460 tumor; H460, after four injections at 5 mg/kg
  tumor response (in words): completely disappeared
Transplanted H460 tumor; [2]
  Body weight of mice: 22.73 g
  Tumor size: 384 mm^3
Transplanted H460 tumor; [3]
  Body weight of mice: 22.65 g
  Tumor size: 384 mm^3
Transplanted H460 tumor; [4]
  Body weight of mice: 22.47 g
  Tumor size: 144 mm^3
Transplanted H460 tumor; [5]
  Body weight of mice: 21.76 g
  Tumor size: 144 mm^3
Transplanted H460 tumor; 2.5 mg/kg, Before Injection
  Body weight of mice: 22.7 g
  Tumor size: 294 mm^3
Transplanted H460 tumor; [6]
  Body weight of mice: 18.36 g
  Tumor size: 144 mm^3
Transplanted H460 tumor; [7]
  Body weight of mice: 19.65 g
  Tumor size: 40 mm^3
Transplanted H460 tumor; [8]
  Body weight of mice: 18.21 g
  Tumor size: 18 mm^3
Transplanted H460 tumor; [9]
  Body weight of mice: 18.22 g
  Tumor size: 13.5 mm^3
Transplanted H460 tumor; 5 mg/kg, Before Injection
  Body weight of mice: 20.95 g
  Tumor size: 196 mm^3

Source: patent publication US11571480B2, “Multi-ligand drug conjugates and uses thereof” (priority 2015, dated 2023)
